The source made the active and inactive calls.
How the values were obtained:
[1] = biological target: T1, Coagulation factor XII (Homo sapiens, UniProt P00748); assay: Factor XIIa Dose Response Confirmation from Single Well HTS. [Related pubchem assays (depositor defined):AID701]; format: functional
T1 sequence (P00748 whole entry): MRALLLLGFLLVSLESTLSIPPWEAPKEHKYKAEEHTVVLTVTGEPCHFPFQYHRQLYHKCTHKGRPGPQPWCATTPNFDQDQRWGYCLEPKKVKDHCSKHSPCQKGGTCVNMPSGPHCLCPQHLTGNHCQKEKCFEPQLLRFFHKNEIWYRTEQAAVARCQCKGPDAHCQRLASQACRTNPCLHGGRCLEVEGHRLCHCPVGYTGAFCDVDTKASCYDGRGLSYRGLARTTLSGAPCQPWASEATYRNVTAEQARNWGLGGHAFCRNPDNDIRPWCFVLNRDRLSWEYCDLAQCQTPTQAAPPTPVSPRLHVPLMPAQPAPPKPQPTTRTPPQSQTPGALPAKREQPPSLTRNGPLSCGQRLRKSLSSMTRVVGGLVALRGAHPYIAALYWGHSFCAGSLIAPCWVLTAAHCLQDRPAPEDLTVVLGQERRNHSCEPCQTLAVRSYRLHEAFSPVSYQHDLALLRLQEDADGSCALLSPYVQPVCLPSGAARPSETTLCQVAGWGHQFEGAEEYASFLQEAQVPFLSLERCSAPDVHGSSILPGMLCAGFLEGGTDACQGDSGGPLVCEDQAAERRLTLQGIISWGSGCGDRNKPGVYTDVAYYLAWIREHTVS

[2] = biological target: T2, E3 ubiquitin-protein ligase XIAP (Homo sapiens, UniProt P98170); assay: Counter Screen using XIAP-Bir3 for Chemical Antagonists of Bir1/2 domains of IAP-family anti-apoptotic proteins. [Related pubchem assays (depositor defined):AID1018, AID1449, AID1514, AID1638, AID1749, AID1750, AID488957, AID488963]
[3] = biological target: T2, E3 ubiquitin-protein ligase XIAP; assay: small molecules displacing peptide from XIAP – biochemical, IAP family, fluorescence polarization (AID 1018); format: functional
[4] = biological target: T3, G-protein coupled receptor 35 (Homo sapiens, UniProt Q9HC97); assay: SAR analysis of Antagonists of the GPR35 Receptor using an Image-Based Assay - Set 4. [Related pubchem assays (depositor defined):[…]]; format: functional
[5] = biological target: T4, Cannabinoid receptor 1 (Homo sapiens, UniProt P21554); assay: SAR analysis of agonists of the Cannabinoid Receptor 1 using an Image-Based Assay - Set 3. [Related pubchem assays (depositor defined):AID1961, AID1965]; format: functional
[6] = biological target: T4, Cannabinoid receptor 1; assay: SAR analysis of antagonists of the Cannabinoid Receptor 1 using an Image-Based Assay - Set 3. [Related pubchem assays (depositor defined):AID1961, AID1965]; format: functional
[7] = biological target: T3, G-protein coupled receptor 35; assay: SAR analysis of Agonists of the GPR35 Receptor using an Image-Based Assay - Set 3. [Related pubchem assays (depositor defined):AID1961, AID1965]; format: functional
[8] = biological target: T5, Cannabinoid receptor 2 (Homo sapiens, UniProt P34972); assay: SAR analysis of agonists of the Cannabinoid Receptor 2 using an Image-Based Assay - Set 2. [Related pubchem assays (depositor defined):AID1961, AID1965]; format: functional
[9] = biological target: G-protein coupled receptor 55 (Homo sapiens, UniProt Q9Y2T6); assay: SAR analysis of selective Agonists of GPR55 using an Image-Based Assay - Set 2. [Related pubchem assays (depositor defined):AID1961, AID1965]; format: functional
[10] = biological target: T5, Cannabinoid receptor 2; assay: SAR analysis of antagonists of the Cannabinoid Receptor 2 using an Image-Based Assay - Set 2. [Related pubchem assays (depositor defined):AID1961, AID1965]; format: functional
[11] = inhibition of ADAM10 peptide cleavage – biochemical, FRET peptide substrate, recombinant human ADAM10, selectivity assay for ADAM17 exosite inhibitor project, dose response (AID 743259);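 further: ADAM10 enzyme cleaving a FRET peptide substrate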
[12] = biological target: Disintegrin and metalloproteinase domain-containing protein 17 (Homo sapiens, UniProt P78536); assay: exosite inhibitors of ADAM17, dose response, biochemical (AID 743260)
[13] = biological target: DNA damage-inducible transcript 3 protein (Mus musculus, UniProt P35639); format: functional, Cricetulus griseus
DNA damage-inducible transcript 3 protein, sequence (P35639 whole entry): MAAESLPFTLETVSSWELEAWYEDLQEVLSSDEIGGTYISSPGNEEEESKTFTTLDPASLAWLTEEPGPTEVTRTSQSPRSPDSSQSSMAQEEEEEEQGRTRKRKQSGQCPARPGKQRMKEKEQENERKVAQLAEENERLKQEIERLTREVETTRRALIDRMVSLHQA

T3 sequence (Q9HC97 whole entry): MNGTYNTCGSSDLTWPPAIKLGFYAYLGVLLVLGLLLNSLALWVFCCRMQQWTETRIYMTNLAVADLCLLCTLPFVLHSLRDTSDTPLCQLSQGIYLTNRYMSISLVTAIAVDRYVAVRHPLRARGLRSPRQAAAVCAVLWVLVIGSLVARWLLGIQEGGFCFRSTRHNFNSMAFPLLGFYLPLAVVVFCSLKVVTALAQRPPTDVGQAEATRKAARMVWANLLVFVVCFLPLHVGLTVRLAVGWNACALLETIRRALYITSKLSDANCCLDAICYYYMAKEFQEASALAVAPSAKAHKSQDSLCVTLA
T5 sequence (P34972 whole entry): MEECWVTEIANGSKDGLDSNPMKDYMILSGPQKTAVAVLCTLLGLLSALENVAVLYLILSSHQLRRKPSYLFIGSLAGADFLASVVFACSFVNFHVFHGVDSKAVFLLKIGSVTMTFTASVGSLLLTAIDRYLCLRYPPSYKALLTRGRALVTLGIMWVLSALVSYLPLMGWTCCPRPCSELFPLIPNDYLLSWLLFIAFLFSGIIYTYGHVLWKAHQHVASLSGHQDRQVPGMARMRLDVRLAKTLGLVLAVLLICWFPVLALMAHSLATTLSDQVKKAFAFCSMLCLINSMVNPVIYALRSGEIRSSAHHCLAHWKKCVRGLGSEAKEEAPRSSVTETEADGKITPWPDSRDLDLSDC
T4 sequence (P21554 whole entry): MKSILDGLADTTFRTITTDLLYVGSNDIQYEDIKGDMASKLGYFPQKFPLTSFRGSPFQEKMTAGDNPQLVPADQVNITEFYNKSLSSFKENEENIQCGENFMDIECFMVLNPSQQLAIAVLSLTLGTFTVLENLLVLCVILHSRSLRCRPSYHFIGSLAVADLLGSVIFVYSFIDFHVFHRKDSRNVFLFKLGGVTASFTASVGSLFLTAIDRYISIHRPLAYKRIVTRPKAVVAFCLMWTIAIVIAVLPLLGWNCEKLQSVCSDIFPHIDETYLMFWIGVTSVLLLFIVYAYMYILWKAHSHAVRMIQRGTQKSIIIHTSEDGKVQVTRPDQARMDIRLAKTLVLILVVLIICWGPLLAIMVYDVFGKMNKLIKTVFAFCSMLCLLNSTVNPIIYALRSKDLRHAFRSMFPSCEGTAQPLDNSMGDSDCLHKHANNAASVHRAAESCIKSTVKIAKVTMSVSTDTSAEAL
T2 sequence (P98170 whole entry): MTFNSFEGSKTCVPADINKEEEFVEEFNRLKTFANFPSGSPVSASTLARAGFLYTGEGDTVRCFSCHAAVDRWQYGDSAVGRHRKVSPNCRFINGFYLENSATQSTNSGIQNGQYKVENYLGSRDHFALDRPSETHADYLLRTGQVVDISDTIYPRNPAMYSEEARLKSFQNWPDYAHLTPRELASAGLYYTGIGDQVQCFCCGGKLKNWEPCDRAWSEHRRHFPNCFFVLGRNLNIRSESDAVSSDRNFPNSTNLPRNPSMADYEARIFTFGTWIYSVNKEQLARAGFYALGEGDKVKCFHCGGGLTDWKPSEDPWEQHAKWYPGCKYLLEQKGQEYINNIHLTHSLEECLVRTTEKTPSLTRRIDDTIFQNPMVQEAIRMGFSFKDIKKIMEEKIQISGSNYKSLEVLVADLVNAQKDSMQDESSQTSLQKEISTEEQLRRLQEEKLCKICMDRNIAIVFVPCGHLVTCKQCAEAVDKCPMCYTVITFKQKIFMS
Disintegrin and metalloproteinase domain-containing protein 17, sequence (P78536 whole entry, the tested form may be a part): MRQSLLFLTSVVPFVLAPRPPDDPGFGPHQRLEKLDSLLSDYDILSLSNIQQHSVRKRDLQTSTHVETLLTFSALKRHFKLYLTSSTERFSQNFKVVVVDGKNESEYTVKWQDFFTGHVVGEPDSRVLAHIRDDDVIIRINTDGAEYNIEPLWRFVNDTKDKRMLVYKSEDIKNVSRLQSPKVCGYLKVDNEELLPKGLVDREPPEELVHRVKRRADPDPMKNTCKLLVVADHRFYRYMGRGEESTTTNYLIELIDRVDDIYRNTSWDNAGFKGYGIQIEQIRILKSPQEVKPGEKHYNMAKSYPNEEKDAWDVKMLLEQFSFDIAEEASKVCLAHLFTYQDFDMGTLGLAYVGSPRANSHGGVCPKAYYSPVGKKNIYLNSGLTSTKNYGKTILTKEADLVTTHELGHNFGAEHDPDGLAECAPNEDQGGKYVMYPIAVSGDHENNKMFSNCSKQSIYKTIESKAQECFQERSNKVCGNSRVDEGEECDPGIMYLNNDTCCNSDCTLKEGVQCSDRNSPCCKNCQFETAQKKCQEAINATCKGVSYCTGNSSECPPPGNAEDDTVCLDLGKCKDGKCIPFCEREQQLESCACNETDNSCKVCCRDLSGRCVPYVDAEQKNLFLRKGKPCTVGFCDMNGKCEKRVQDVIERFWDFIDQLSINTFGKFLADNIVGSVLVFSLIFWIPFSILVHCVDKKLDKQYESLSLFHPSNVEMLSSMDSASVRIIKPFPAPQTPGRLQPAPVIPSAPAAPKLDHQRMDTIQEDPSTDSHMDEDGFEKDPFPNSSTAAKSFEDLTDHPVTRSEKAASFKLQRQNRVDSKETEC
G-protein coupled receptor 55, sequence (Q9Y2T6 whole entry): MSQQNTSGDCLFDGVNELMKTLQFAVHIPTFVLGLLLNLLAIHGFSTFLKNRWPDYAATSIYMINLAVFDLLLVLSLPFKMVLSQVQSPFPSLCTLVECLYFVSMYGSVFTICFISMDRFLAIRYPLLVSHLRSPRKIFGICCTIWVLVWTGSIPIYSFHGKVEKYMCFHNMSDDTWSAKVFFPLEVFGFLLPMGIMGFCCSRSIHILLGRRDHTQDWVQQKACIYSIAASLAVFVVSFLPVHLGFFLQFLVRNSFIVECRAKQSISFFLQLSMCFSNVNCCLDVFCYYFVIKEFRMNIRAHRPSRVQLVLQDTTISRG

Question: Which IC50 [1] does the source give for `Cc1cc(OC(=O)c2ccco2)c2c(C)cc(=O)oc2c1` here?
Answer: The IC50 was > 50 µM (inconclusive).

Question: Which results are given for `CSc1nc(N)nc(SCC(=O)Nc2cccc(F)c2)c1C#N`?
Answer: IC50 [2]: > 100 µM (inactive); IC50 [3]: > 100 µM (not active)

Question: Which results are given for `O=C(Nc1cccc(S(=O)(=O)N2CCOCC2)c1)c1ccc(N2CCCC2=O)cc1`?
Answer: IC50 [4]: > 32 µM (inactive); EC50 [5]: > 32 µM (inactive); IC50 [6]: > 32 µM (inactive); EC50 [7]: > 32 µM (inactive); EC50 [8]: > 32 µM (inactive); EC50 [9]: 1.37 µM (active); IC50 [10]: > 32 µM (inactive)

Question: With `Sc1nnc(C2CCCCC2)n1/N=C/C=C/c1ccccc1` as the molecule, how does the IC50 [11] read?
Answer: The IC50 was 13.7 µM (inactive).

Question: And the IC50 [12]?
Answer: Its IC50 is > 69.5 µM (inactive).

Question: What about the “Absolute IC50 (CHOP)” value [13] of the same molecule?
Answer: The value was 10 µM.

Source: ChEMBL document CHEMBL1201862, “PubChem BioAssay data set” (2004)
